Laboratory results taken from US20260250318A1, “COMPOSITIONS AND METHODS FOR CROSSING THE BLOOD BRAIN BARRIER” (VOYAGER THERAPEUTICS, INC., priority 2022, published 2026).

How the values were obtained:
[1] = tested on: brains, heart, liver, muscle, and DRG of the NHPs; experiment: Maturation of TTM-001 and TTM-002 capsids, NGS enrichment in NHP tissues; type: in vivo; conditions: relative to AAV9 control
How it was run: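 Variants carry mutations within and flanking the loop IV peptide insert: positions 450–466 were triplet-randomized, while positions 449–466 received low-frequency point mutations. The combined pool went into two NHPs, and each peptide was scored by NGS enrichment ratio against AAV9.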

brain = experiment: Matured TTM-001 and TTM-002 variants, NGS enrichment in mouse brain; type: in vivo, mice; conditions: relative to AAV9 control
[2] = NGS fold-enrichment of RNA, NHP brain
[3] = NGS fold-enrichment, DRG of NHPs
[4] = NGS fold-enrichment, NHP liver DNA
[5] = NGS fold-enrichment, NHP liver RNA
[6] = NGS fold-enrichment, NHP muscle
[7] = NGS fold-enrichment, RNA, brain of NHPs
[8] = NGS fold-enrichment, heart of NHPs
[9] = NGS fold-enrichment, liver DNA of NHPs
[10] = NGS fold-enrichment, liver RNA of NHPs
[11] = NGS fold-enrichment, muscle of NHPs
[12] = NGS fold-enrichment, brain of mice
[13] = NGS fold-enrichment, mouse brain
[14] = NGS fold-enrichment of matured AAV capsid variants, NHP brain, RNA

| Sequence | Fold Enrichment relative to AAV9, Brain (NHP) [1, 2] | Fold Enrichment relative to AAV9, DRG (NHP) [1, 3] | Fold Enrichment relative to AAV9, DRG (NHP) ([1]; NGS fold-enrichment, NHP DRG) | Fold Enrichment relative to AAV9, Heart (NHP) ([1]; NGS fold-enrichment, NHP heart) | Fold Enrichment relative to AAV9, Liver DNA (NHP) [1, 4] | Fold Enrichment relative to AAV9, Liver RNA (NHP) [1, 5] | Fold Enrichment relative to AAV9, Muscle (NHP) [1, 6] | Fold Enrichment relative to AAV9, Brain (NHP) [1, 7] | Fold Enrichment relative to AAV9, Heart (NHP) [1, 8] | Fold Enrichment relative to AAV9, Liver DNA (NHP) [1, 9] | Fold Enrichment relative to AAV9, Liver RNA (NHP) [1, 10] | Fold Enrichment relative to AAV9, Muscle (NHP) [1, 11] | Fold Enrichment relative to AAV9, Brain (Mouse) (brain; [12]) | Fold Enrichment relative to AAV9, Brain (Mouse) (brain; [13]) | Fold Enrichment relative to AAV9, Brain (NHP) [1, 14] | Fold Enrichment relative to AAV9, DRG (NHP) ([1]; NHP DRG) | Fold Enrichment relative to AAV9, Heart (NHP) ([1]; NHP heart) | Fold Enrichment relative to AAV9, Liver DNA (NHP) ([1]; NHP liver, DNA) | Fold Enrichment relative to AAV9, Liver RNA (NHP) ([1]; NHP liver, RNA) | Fold Enrichment relative to AAV9, Muscle (NHP) ([1]; NHP muscle) | further results |
| --- | --- | --- | --- | --- | --- | --- | --- | --- | --- | --- | --- | --- | --- | --- | --- | --- | --- | --- | --- | --- | --- |
| KAIKGSGSPHSKAQDQQT | 82.258 fold | 0.000 fold | 0.000 fold | 0.000 fold | 0.000 fold | 0.108 fold | 0.000 fold | 82.258 fold | 0.000 fold | 0.000 fold | 0.108 fold | 0.000 fold | 85.178 fold | 85.178 fold |  |  |  |  |  |  |  |
| KTVNGSGSPHSKAPNQHT | 117.207 fold | 0.000 fold | 0.000 fold | 0.109 fold | 0.074 fold | 0.000 fold | 0.000 fold | 117.207 fold | 0.109 fold | 0.074 fold | 0.000 fold | 0.000 fold | 51.008 fold | 51.008 fold |  |  |  |  |  |  |  |
| KTVIGSGSPHSKSQNQQT |  |  |  |  |  |  |  |  |  |  |  |  |  |  | 54.603 fold | 0.000 fold | 0.000 fold | 0.106 fold | 0.000 fold | 0.000 fold | Fold Enrichment relative to AAV9, Brain (Mouse) (brain; mouse brain): 69.121 fold |
| KTIIGGGSPHSKAQNPQT |  |  |  |  |  |  |  |  |  |  |  |  |  |  | 58.924 fold | 0.000 fold | 0.202 fold | 0.126 fold | 0.000 fold | 0.000 fold | Fold Enrichment relative to AAV9, Brain (Mouse) (brain; mouse brain): 53.992 fold |
| KTINGSGSPHSKAQAPST |  | 0.200 fold |  |  |  |  |  | 60.696 fold | 0.005 fold | 0.263 fold | 0.751 fold | 0.000 fold | 115.528 fold |  |  |  |  |  |  |  |  |
| KTIKGSGSPHSKAQDLQT |  | 0.000 fold |  |  |  |  |  | 63.260 fold | 0.000 fold | 0.218 fold | 0.000 fold | 0.000 fold | 58.576 fold |  |  |  |  |  |  |  |  |
| KTENLSGSPHSKAQNQQT |  | 0.070 fold |  |  |  |  |  | 70.303 fold | 0.000 fold | 0.470 fold | 0.395 fold | 0.000 fold | 107.385 fold |  |  |  |  |  |  |  |  |
| KTNNGHDSPHKSVQNQHT | 115.172 fold |  | 0.000 fold | 0.083 fold | 0.062 fold | 0.000 fold | 0.000 fold |  |  |  |  |  |  | 7.934 fold |  |  |  |  |  |  |  |
| KNCVGSGSPHSKAQNQQT |  | 0.000 fold |  |  |  |  |  | 60.535 fold | 0.000 fold | 0.282 fold | 0.018 fold | 0.000 fold | 96.175 fold |  |  |  |  |  |  |  |  |
| KTINGHDSPHKSGRTQET | 81.599 fold |  | 0.000 fold | 0.062 fold | 0.137 fold | 0.000 fold | 0.000 fold |  |  |  |  |  |  | 7.270 fold |  |  |  |  |  |  |  |
| KTINGSGSPHSKAQNTHD |  |  |  |  |  |  |  |  |  |  |  |  |  |  | 58.108 fold | 0.000 fold | 0.027 fold | 0.126 fold | 0.410 fold | 0.000 fold | Fold Enrichment relative to AAV9, Brain (Mouse) (brain; mouse brain): 81.189 fold |
| KSDKGSGSPHSKAQNQQT |  |  |  |  |  |  |  |  |  |  |  |  |  |  | 58.248 fold | 0.000 fold | 0.000 fold | 0.166 fold | 0.076 fold | 0.000 fold | Fold Enrichment relative to AAV9, Brain (Mouse) (brain; mouse brain): 146.566 fold |
| KTINGSGSPHSKAQYSVT |  |  |  |  |  |  |  |  |  |  |  |  |  |  | 57.130 fold | 0.000 fold | 0.093 fold | 0.302 fold | 1.235 fold | 0.000 fold | Fold Enrichment relative to AAV9, Brain (Mouse) (brain; mouse brain): 60.023 fold |
| KSINGSGSPHSKAPNLQT |  |  |  |  |  |  |  |  |  |  |  |  |  |  | 51.812 fold | 0.000 fold | 0.256 fold | 0.139 fold | 0.085 fold | 0.000 fold | Fold Enrichment relative to AAV9, Brain (Mouse) (brain; mouse brain): 59.270 fold |
| KTENISGSPHSKAQNQQT | 76.072 fold | 0.000 fold | 0.000 fold | 0.000 fold | 0.132 fold | 0.115 fold | 0.000 fold | 76.072 fold | 0.000 fold | 0.132 fold | 0.115 fold | 0.000 fold | 83.118 fold | 83.118 fold |  |  |  |  |  |  |  |
| KTVNGHDSPHKSGRNQET | 102.695 fold |  | 0.000 fold | 0.286 fold | 0.027 fold | 0.000 fold | 0.000 fold |  |  |  |  |  |  | 11.958 fold |  |  |  |  |  |  |  |
| KTINGSGSPHSKAQKLNT |  | 0.073 fold |  |  |  |  |  | 67.782 fold | 0.092 fold | 0.201 fold | 1.232 fold | 0.000 fold | 68.637 fold |  |  |  |  |  |  |  |  |
| KTDKGSGSPHSKAQNQQT | 94.572 fold |  | 0.000 fold | 0.037 fold | 0.367 fold | 0.951 fold | 0.000 fold |  |  |  |  |  |  | 47.888 fold |  |  |  |  |  |  |  |
| KTEKVSGSPHSKAQNQQT | 84.558 fold | 0.000 fold | 0.000 fold | 0.022 fold | 0.424 fold | 0.873 fold | 0.000 fold | 84.558 fold | 0.022 fold | 0.424 fold | 0.873 fold | 0.000 fold | 112.185 fold | 112.185 fold |  |  |  |  |  |  |  |
| KTINGNDSPHKSVQNHQT | 120.002 fold |  | 0.000 fold | 0.099 fold | 0.000 fold | 0.000 fold | 0.788 fold |  |  |  |  |  |  | 7.920 fold |  |  |  |  |  |  |  |
